Data from US11472844B2, “Peptidomimetics, method of synthesis and uses thereof” (priority 2017, dated 2022).
*: point of attachment. X1 = CC[N+]1=C(/C=C/C=C/C=C2N(CCCCCC(=O)NCCN3C(=O)CC(*)C3=O)c3ccc(S(=O)(=O)O)cc3C2(C)C)C(C)(C)c2cc(S(=O)(=O)[O-])ccc21

What was measured:
[1] = test system: mouse circulating neutrophils; test: Labelling of fixed mouse neutrophils; assay type: cell-based
Method: Polymorphonuclear neutrophils purification. Human polymorphonuclear neutrophils were purified as described previously (Monceaux et al. 2016). Briefly, plasma was removed by centrifugation (450×g, 15 min); blood cells were resuspended in 0.9% NaCl solution supplemented with 0.72% Dextran. After red blood cells sedimentation, white blood cells were pelleted and further separated on a two layer Percoll (GE Healthcare) (51%−42%) by centrifugation (at 240×g, 20 min). PBMC (top layer) were isolated from polymorphonuclear neutrophils (bottom layer). Red blood cells were removed from the latter fraction using CD235a (glycophorin) microbeads (negative selection) (Miltenyi Biotec). PBMCs and polymorphonuclear neutrophils were resuspended in the autologous plasma. Guinea pig and mouse polymorphonuclear neutrophils were purified with the same procedure.

[2] = test system: neutrophils recruited to guinea pig colonic mucosa infected with Shigella flexneri; test: Guinea pig model of shigellosis, staining of fixed colon sections
Method: Guinea pig. The experimental protocol was approved by the french Ethic Committee Paris (n° 20140069, 2014). Young guinea pigs (Hartley, <150 g, Charles River) were anaesthetized and infected intrarectally with 10^9 CFU exponentially grown Shigella flexneri 5a (M90T) pGFP as previously described (Shim et al. 2007) (Monceaux et al. 2016). Infection occurred during 8 hours before animals were sacrificed and infected colons collected and fixed in 4% Paraformaldehyde (PFA) for two hours. For immunohistochemical staining, infected guinea pig colon samples were washed in PBS and incubated at 4° C. in PBS containing 16% sucrose for 4 hours, followed by incubation in PBS with 30% sucrose overnight. Samples were frozen in OCT (VWR 361603E) on dry ice. Frozen blocks were stored at −80 until sectioning. 10 to 30 μm sections were obtained using a cryostat CM-3050S (Leica). Tissue slices were labeled in PBS+0.1% saponin (Sigma-Aldrich) with MUB40-Cy5 or MUB40-Dylight (1 μg/ml) to localize recruited neutrophils. Slides were washed three time in PBS+0.1% saponin, three times in PBS, and three times in deionized H2O and mounted with prolong gold^tm mounting media.

[3] = target: trypsin (Sus scrofa, UniProt P00761); conditions: trypsin digestion, 37°C, pH8, followed up to 24 h
Chain of trypsin (P00761 9-231): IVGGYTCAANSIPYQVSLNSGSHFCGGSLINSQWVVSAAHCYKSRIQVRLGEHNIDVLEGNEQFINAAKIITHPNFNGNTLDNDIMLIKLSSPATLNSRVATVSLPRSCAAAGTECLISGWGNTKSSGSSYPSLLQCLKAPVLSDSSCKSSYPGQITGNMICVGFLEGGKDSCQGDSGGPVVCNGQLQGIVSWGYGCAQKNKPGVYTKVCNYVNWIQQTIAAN
Method: Trypsin proteolysis. MUB40 (SEQ ID NO: 3)-Cy5 and RI-MUB40 (SEQ ID NO: 2)-Cy5 were dissolved in 50 mM ammonium bicarbonate, pH 8. Prior to digestion and owing to the propensity of maleimide derivatives to undergo ring-opening in a basic environment (Fontaine et al., 2015), we incubated both peptides at 37° C. overnight. Ring-opening completion was checked before trypsin addition. […] Lyophilized trypsin (Thermo scientific) was reconstituted using 50 mM acetic acid, diluted with 50 mM ammonium bicarbonate and added to the peptide solution so as to obtain a final peptide concentration of 0.25 mg/mL and a protease to protein ratio of 1:20 (w/w). Samples were directly incubated on the injection sampler thermostated at 37° c. HPLC and LC-MS analyses were performed as previously described above, applying a 15% to 40% linear gradient of acetonitrile in 10 mM ammonium acetate over 20 minutes.
Hydrolysis experiments were done in solution at 37° c., pH8 and monitored by HPLC by measuring the peak area of the remaining intact peptides.

[4] = test system: colonic mucus layer and infiltrated neutrophils; test: Human colonic explant infected with Shigella flexneri, two-photon microscopy; conditions: 1 μg/mL, after fixation and permeabilization
From the text: Ex vivo infection of human colonic tissue. Human colon explants were infected with S. flexneri 5a (M90T) pGFP, as described in (Nothelfer et al. 2014) and adapted from (Coron et al. 2009). Briefly, colonic tissues were cut into ˜5 cm^2 segments and pinned flat, with the submucosa facing down, onto a 4% agarose layer in tissue culture Petri dishes containing DMEM/F12 culture medium (Invitrogen) supplemented with 10% FBS, glutamine, and 2.1 g/L NaHCO3(Sigma-Aldrich). S. flexneri (M90T) 5a pGFP was added at ˜2×10^8 bacteria per cm^2 of tissue. Bacteria were allowed to settle for 15 min at room temperature before incubation at 37° C., 5% CO2 for 6 h on a slowly rocking tray. Tissue was fixed by overnight incubation with 4% PFA (Euromedex) and 0.1 M Hepes (Gibco) in PBS. For whole-mount staining, tissues were fixed on a 40×11-mm tissue culture dish (TPP) with Histoacryl tissue glue (Braun). To obtain 150-μm-thick sections, the tissue was embedded in low-melting agarose according to (Snippert et al. 2011) and cut with a vibratome (VT1000E; Leica).
Two-photons microscopy. […] MUB40-Cy5 was detected using multiphoton excitation (MPE, magenta), Acquisitions were performed with Zen 2008 SP 1.1 software acquisition package developed by ZEISS. […]

[5] = test system: Peripheral blood mononuclear cells (PBMC); test: Fluorescent labelling of PBMC; assay type: cell-based, human; conditions: PBMC fixed in PFA 3%
From the text: Antibodies, fluorescent markers. For immunofluorescence assay, lactoferrin was detected with a mouse anti-lactoferrin primary monoclonal antibody (Hycult biotech, clone 265-1K1, 1:50 dilution) and an anti-mouse-FITC conjugated secondary antibody (1:1000). Nuclei were detected with DAPI (Life Technologies), Lyophilized MUB40 peptides (MUB40#1 (SEQ ID NO: 3)-Cy5, MUB40#2 (SEQ ID NO: 4)-Cy5, MUB40#3 (SEQ ID NO: 5)-Cy5, MUB40#4 (SEQ ID NO: 6)-Cy5, MUB40#1 (SEQ ID NO: 3)-Dylight, RI-MUB40 (SEQ ID NO: 2)-Cy5, and RI-MUB40 (SEQ ID NO: 2)-Biotin) were solubilized in a phosphate buffer pH8 at a 1 mg/mL concentration and used at a 1:1000 dilution. For PBMC staining CD19-APC (B lymphocytes), CD3-APC (T lymphocytes), and CD14-PercP (monocytes, macrophages) (BD Bioscience) were used at a 1:1000 dilution together with Dapi (1:1000) and MUB40-Cy5 (1 mg/mL). Actin was stained with Phalloidin-Rhodamine red X (RRX) (Jackson Immunoresearch Antibodies) used at a 1:1000 final dilution.
Polymorphonuclear neutrophils purification. Human polymorphonuclear neutrophils were purified as described previously (Monceaux et al. 2016). Briefly, plasma was removed by centrifugation (450×g, 15 min); blood cells were resuspended in 0.9% NaCl solution supplemented with 0.72% Dextran. […]

Substance: Ac-C(X1)TAEGIKKFEGDGYELFKDNFPAGEKFDNDDTNDQFYTVIF-NH2 [Cy5-MUB40#1]
- labelling of neutrophils [1]: efficiently labeled
- detection of neutrophil lactoferrin secretion ([2]; fixed guinea pig colonic mucosa infected by Shigella flexneri, 1 μg/mL): successfully revealed
- labelling of recruited neutrophils ([2]; guinea pig colon, Shigella flexneri, 1 μg/ml): specifically labeled
- degradation by trypsin (in words) [3]: almost completely degraded within 3 h
- labelling of colonic mucus layer and infiltrated neutrophils [4]: labelled
- staining of CD3+, CD14+ and CD19+ cells [5]: not stained
